Source: patent publication US9938245B2 (THE TRUSTEES OF COLUMBIA UNIVERSITY IN THE CITY OF NEW YORK, priority 2014, dated 2018)
Entries after “also recorded” stand apart in the source; their conditions may differ.

Legend:
BJeLR = experiment: Concentration-dependent growth inhibition (alamar blue), isogenic BJ cell lines; type: cell-based, human; settings: for IC50: Homo sapiens, BJeLR, 48 h, 2 days, alamar blue
[1] = Compound half-life in liver microsomes; settings: for half-life at 0.5 μM: mouse, liver microsomes, pH 7.4; for metabolic stability (in words): mouse liver microsomes
system xc− = target: T1, system xc− (Homo sapiens, UniProt Q9UPY5); experiment: Glutamate release assay (system xc− activity); settings: read-out: IC50 glutamate release; CCF-STTG1 human astrocytoma cells, 2 hour incubation
T1 sequence (Q9UPY5 1-501): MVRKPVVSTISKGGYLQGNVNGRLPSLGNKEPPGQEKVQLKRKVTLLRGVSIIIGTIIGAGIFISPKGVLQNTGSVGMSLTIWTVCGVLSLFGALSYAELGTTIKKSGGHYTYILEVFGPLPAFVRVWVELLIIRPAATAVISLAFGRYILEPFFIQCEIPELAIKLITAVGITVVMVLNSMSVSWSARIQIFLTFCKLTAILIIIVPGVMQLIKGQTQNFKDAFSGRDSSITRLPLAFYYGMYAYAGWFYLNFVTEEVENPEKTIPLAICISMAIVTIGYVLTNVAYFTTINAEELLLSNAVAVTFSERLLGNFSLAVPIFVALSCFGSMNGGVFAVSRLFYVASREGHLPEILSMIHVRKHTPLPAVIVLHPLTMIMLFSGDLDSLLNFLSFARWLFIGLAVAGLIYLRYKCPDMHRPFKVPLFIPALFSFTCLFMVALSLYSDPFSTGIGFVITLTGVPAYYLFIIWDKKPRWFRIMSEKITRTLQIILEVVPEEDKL
T1 sequence (P08195 1-529 partner): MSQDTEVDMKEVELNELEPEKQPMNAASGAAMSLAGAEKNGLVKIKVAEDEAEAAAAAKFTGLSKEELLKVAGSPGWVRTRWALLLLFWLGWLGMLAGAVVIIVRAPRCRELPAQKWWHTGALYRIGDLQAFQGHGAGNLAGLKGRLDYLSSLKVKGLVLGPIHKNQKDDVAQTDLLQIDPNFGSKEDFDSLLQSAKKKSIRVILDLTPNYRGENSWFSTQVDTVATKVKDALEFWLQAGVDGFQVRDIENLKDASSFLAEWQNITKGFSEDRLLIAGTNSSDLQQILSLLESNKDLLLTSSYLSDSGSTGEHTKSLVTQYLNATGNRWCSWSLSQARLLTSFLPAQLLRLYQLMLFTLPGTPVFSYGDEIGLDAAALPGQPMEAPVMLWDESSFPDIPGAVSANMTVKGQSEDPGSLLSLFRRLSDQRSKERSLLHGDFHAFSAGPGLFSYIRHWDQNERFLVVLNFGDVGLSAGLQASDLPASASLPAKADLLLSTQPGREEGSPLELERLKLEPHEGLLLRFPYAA

HT1080 = experiment: Concentration-dependent growth inhibition (alamar blue), HT1080; type: cell-based, human; settings: Homo sapiens, HT-1080, 48 h, 2 days
Description: Assay plates were prepared by seeding either BJ-derived cell lines or HT-1080 cells at 1,500 cells per well concentration in 36 μL growth medium. Cells in the assay plates were treated with compounds by transferring 4 μL volume from the compound plate. The final concentration of compound was typically 30 μM to 0.9 nM in this 16-point, 2-fold dilution series. Assay plates were returned to the culture incubator and maintained for 2 days before adding alamar blue. […] Plates were incubated further for 16 hours to allow reduction of alamar blue, which results in the generation of red fluorescence. The fluorescence intensity was determined using a Victor 3 plate reader (Perkin Elmer) with a 535 nm excitation filter and a 590 nm emission filter.
Percent growth inhibition (% GI) was calculated from the following formula using the alamar blue fluorescence intensity values. % GI=100*(1−(X−N)/(P−N)) X, cells treated with lethal compound; N, no cells—growth media only; P, no lethal compound—cells only.
The concentration-dependent curves were generated using Prism software. Percent growth inhibition, measured using alamar blue is shown. Error bars indicate one standard deviation of triplicate data.
The results are shown in FIG. 17 and in Table 7 below.

[2] = test system: BJeH, BJeHLT, BJeLR, and DRD; experiment: RSL testing in 4 BJ-derived cell lines; type: cell-based, human
[3] = test system: siGPX4-induced cell death; experiment: Suppression of siGPX4-induced cell death by ferroptosis inhibitors; type: cell-based; settings: 10 μM U0126, 100 μM Vit. E, 100 μM DFOM, 50 μM ZIL
[4] = test system: HT-1080 cells, U-2 OS cells; experiment: Cell viability (alamar blue, 24 hours) with modulators of erastin lethality; type: cell-based, human; settings: HT-1080 or U-2 OS cells
[5] = Pharmacokinetic profile in mice; design: species or system mice (C57BL/6); settings: in vivo
[6] = test system: xenograft tumors generated from BJeLR cells; type: in vivo; settings: for overt toxicity (body weight): mouse, in vivo
Source text: . To test our hypothesis that IKE represented a candidate of choice for in vivo studies, we treated xenograft tumors generated from BJeLR cells in nude mice and with IKE compared to vehicle or doxorubicin treatments (as a positive growth suppression control). […] To confirm that growth suppression caused by IKE was due to ferroptotic cell death, we looked at levels of expression of PTGS2, a gene expression marker of ferroptosis. […]

HT-1080 cells = experiment: Cell death rescue by ALOX inhibitors and COX inhibitor; type: cell-based, human; settings: inhibitor concentrations of Table 2
GFP-ALOX5 = GFP-ALOX5 translocation assay; type: cell-based, human

CC(C)Oc1ccc(C=O)cc1-n1c(CN2CCN(C(=O)COc3ccc(Cl)cc3)CC2)nc2ccccc2c1=O [AE, aldehyde erastin]
IC50 (BJeLR): 8 nM
half-life at 0.5 μM [1]: < 5 min
IC50 (system xc−): 60 nM
IC50 (HT1080): 39 nM

C=CCN1CCN(CC(=O)c2ccc(OC(C)C)c(-n3c(CN4CCN(C(=O)COc5ccc(Cl)cc5)CC4)nc4ccccc4c3=O)c2)CC1 [APKE]
Selectivity (IC50BJeH/IC50BJeLR) (BJeLR): 1.5
IC50 (BJeLR): 195 nM
metabolic stability (in words) [1]: medium to poor metabolic stability
half-life at 0.5 μM [1]: 4.2 min
IC50 (system xc−): 10 nM

CCCCS(=N)(=O)CCC(N)C(=O)O (stereo not drawn) [BSO, Buthioninesulfoximine]
RSL phenotype (selective lethality in oncogenic-RAS cells) [2]: RSL phenotype was observed; also recorded: consistently showed an RSL phenotype

N#CC(=C(/N)Sc1ccccc1N)/C(C#N)=C(\N)Sc1ccccc1N [Compound U0126, U0126]
rescue of siGPX4-induced cell death [3]: rescued

CC(C)Oc1ccc(C(=O)CF)cc1-n1c(CN2CCN(C(=O)COc3ccc(Cl)cc3)CC2)nc2ccccc2c1=O [FKE]
metabolic stability (in words) [1]: medium to poor metabolic stability
half-life at 0.5 μM [1]: 4.7 min
IC50 (system xc−): 40 nM
IC50 (HT1080): 61 nM

N[C@@H](CCC(=O)N[C@@H](CS)C(=O)NCC(=O)O)C(=O)O [GSH, reduced glutathione]
effect on erastin-induced cell death [4]: rescued cells from erastin lethality

CC(C)Oc1ccc(C(=O)Cn2ccnc2)cc1-n1c(CN2CCN(C(=O)COc3ccc(Cl)cc3)CC2)nc2ccccc2c1=O [IKE, imidazole ketone erastin]
Selectivity (IC50BJeH/IC50BJeLR) (BJeLR): 42
IC50 (BJeLR): 3 nM
metabolic stability (in words) [1]: exceptionally high metabolic stability
bioavailability ([5]; mouse, 5 mg/kg IKE, single IV bolus or single oral gavage, C57BL/6 mice): 2.49%
IC50 (system xc−): 30 nM
tumor growth, IKE compared to doxorubicin treatment ([6]; 8 day study): no significant difference
overt toxicity (body weight) [6]: No overt toxicity was observed
expression of PTGS2 relative to doxorubicin or vehicle-treated mice ([6]; qPCR, xenograft): three-fold average increase
tumor size compared to vehicle-treated ([6]; seven once-daily doses of IKE 50 mg/kg I.P., 8 day study): about one third of the size of vehicle-treated tumors
IC50 (HT1080): 314 nM

COc1ccc2c(c1)c(CC(=O)O)c(C)n2C(=O)c1ccc(Cl)cc1 [Indomethacin]
suppression of erastin-induced cell death (HT-1080 cells): only minimally effective in suppressing erastin lethality

CC(=O)c1ccc(OC(C)C)c(-n2c(CN3CCN(C(=O)COc4ccc(Cl)cc4)CC3)nc3ccccc3c2=O)c1 [KE]
half-life at 0.5 μM [1]: 3.8 min
IC50 (system xc−): 30 nM
IC50 (HT1080): 59 nM

CC(C)Oc1ccc(C(=O)CN2CCOCC2)cc1-n1c(CN2CCN(C(=O)COc3ccc(Cl)cc3)CC2)nc2ccccc2c1=O [MKE]
Selectivity (IC50BJeH/IC50BJeLR) (BJeLR): 5
IC50 (BJeLR): 427 nM
metabolic stability (in words) [1]: medium to poor metabolic stability
half-life at 0.5 μM [1]: 23.4 min
IC50 (system xc−): 10 nM

CC(C)Oc1ccc(C(=O)CN2CCN(C)CC2)cc1-n1c(CN2CCN(C(=O)COc3ccc(Cl)cc3)CC2)nc2ccccc2c1=O [MPKE]
Selectivity (IC50BJeH/IC50BJeLR) (BJeLR): 1.9
IC50 (BJeLR): 474 nM
IC50 (system xc−): 300 nM

CC(=O)N[C@@H](CS)C(=O)O [N-acetyl-cysteine]
effect on erastin-induced cell death [4]: rescued cells from erastin lethality

CC(C)Oc1ccc(C(=O)CN2CCNCC2)cc1-n1c(CN2CCN(C(=O)COc3ccc(Cl)cc3)CC2)nc2ccccc2c1=O [PKE, piperazine ketone erastin]
metabolic stability (in words) [1]: exceptionally high metabolic stability
half-life at 0.5 μM [1]: > 90 min
bioavailability ([5]; C57BL/6, mouse, oral, 20 mg/kg): 0.75%
IC50 (system xc−): 100 nM
IC50 (HT1080): 550 nM

COc1ccc(CN2CCN(CC(=O)c3ccc(OC(C)C)c(-n4c(CN5CCN(C(=O)COc6ccc(Cl)cc6)CC5)nc5ccccc5c4=O)c3)CC2)cc1 [PMB-PKE]
Selectivity (IC50BJeH/IC50BJeLR) (BJeLR): 13
IC50 (BJeLR): 13 nM
metabolic stability (in words) [1]: medium to poor metabolic stability
half-life at 0.5 μM [1]: 3.4 min
IC50 (system xc−): 4 nM

CC(C)Oc1ccc(C(=O)C(F)(F)F)cc1-n1c(CN2CCN(C(=O)COc3ccc(Cl)cc3)CC2)nc2ccccc2c1=O [TFKE]
IC50 (system xc−): 20 nM
IC50 (HT1080): 178 nM

CC(c1cc2ccccc2s1)N(O)C(N)=O (stereo not drawn) [ZIL, Zileuton]
rescue of siGPX4-induced cell death [3]: rescued

C[C@H]1O[C@@H](O[C@H]2[C@@H](O)C[C@H](O[C@H]3[C@@H](O)C[C@H](O[C@H]4CC[C@@]5(C)[C@H](CC[C@@H]6[C@@H]5C[C@@H](O)[C@]5(C)[C@@H](C7=CC(=O)OC7)CC[C@]65O)C4)O[C@@H]3C)O[C@@H]2C)C[C@H](O)[C@@H]1O [digoxin, Digoxin]
translocation of GFP-ALOX5 to the nuclear membrane (GFP-ALOX5): induced GFP-ALOX5 translocation

COc1cccc2c1C(=O)c1c(O)c3c(c(O)c1C2=O)C[C@@](O)(C(=O)CO)C[C@@H]3O[C@H]1C[C@H](N)[C@H](O)[C@H](C)O1 [doxorubicin, reference compound]
overt toxicity (body weight) [6]: No overt toxicity was observed
increase in expression of CDKN1A relative to IKE-treated or vehicle-treated mice ([6]; qPCR, xenograft): 5 fold

C[C@H](CCC(=O)O)C[C@H](C)C[C@H](C)C(=O)/C=C(\O)[C@H](C)C[C@H](C)C/C=C/[C@@H](C)[C@@H](O)[C@@H](C)[C@@H](O)C[C@@H]1CC[C@@](C)([C@H]2CC[C@@](C)([C@@H](C)O)O2)O1 [ionomycin]
translocation of GFP-ALOX5 to the nuclear membrane (GFP-ALOX5): induced localization of GFP-ALOX5 to the nuclear membrane in all BJ-derived cell lines

CN[C@@H]1C[C@H]2O[C@@](C)([C@@H]1OC)n1c3ccccc3c3c4c(c5c6ccccc6n2c5c31)C(=O)NC4 [staurosporine, Staurosporine]
translocation of GFP-ALOX5 to the nuclear membrane (GFP-ALOX5): did not

Vitamin E [Vit. E]
rescue of siGPX4-induced cell death [3]: rescued

lysophosphatidyl choline [lyso-PC]
RSL phenotype (selective lethality in oncogenic-RAS cells) [2]: did not show differential cytotoxicity
effect on erastin-induced cell death [4]: modestly sensitized cells to erastin-induced cell death
